Test results taken from patent publication US20070083333A1, “Modeling of systemic inflammatory response to infection” (priority 2003, published 2007).
Several values for one entry are separate records, joined by “and”; a condition that tells them apart may be missing. Equal entries are not always repeated.

Experiments:
[1] = tested on: irradiated C3H/HeN mice infected with E. coli strain Bort; assay: VEGF receptor antagonists (Compounds I and II): survival, bacterial counts, time of euthanasia; assay type: in vivo, mouse; settings: for Bacterial counts: blood bacterial count of individual animal bled at 40 hours after infection, 100 mg/Kg injected 16 hours after infection, FD given where no count; for Bacterial counts / Time of Death: 100 mg/kg; for Status: individual animal survival status code (1 or 0, not defined; 0 only at 168); for Time of Death: individual animal, time of death/euthanasia (hours after infection), 100 mg/Kg, ceftriaxone 50 ug/mouse at 40 hours
Method: (§1) Mice were pouched six days and irradiated five days before infection. Eight- to 12-week-old C3H/HeN mice were anesthetized with isofluorane and wiped with alcohol in the area caudal to their ears. Pouches were created at this site by subcutaneous injection of 2-3 ml of air, followed by the subcutaneous injection of 0.2 ml of a 0.5% solution of croton oil in olive oil. Twenty-four hours later, mice were irradiated using a gamma irradiator. Five days after irradiation, animals were infected with E. coli strain Bort by direct injection of the bacterial suspension into the pouches. After infection, animals were treated as described for each individual experiment. Animals were checked daily for signs of pain and distress, including diarrhea, lethargy, ruffled fur, lack of appetite, and poor body condition. Animals were euthanized when they became very lethargic and unable to move when touched. It was previously determined that when mice reach such conditions they will die within 6-8 hours.
Using the procedure described above, 76 mice were pouched, irradiated (495 rads) and infected (0.2 ml of 0.1 OD 600).
(II) (see WO 98/13354 and WO 00/132651). At 40 hours after infection, animals were bled and injected with the same solutions to which ceftriaxone was added to yield a solution containing 50 ug/mouse. Animals were injected with the solutions (no ceftriaxone) for 2 more days. Blood was used for BC and plasma. Two aliquots of 20 ul and an extra aliquot were prepared and stored at −80.

[2] = tested on: irradiated C3H/HeN mice infected with E. coli strain Bort; assay: Ethyl pyruvate plus ceftriaxone, survival in immunocompromised infected mouse model; assay type: in vivo; settings: for Bacterial counts / Status / Status.dead / Time death: one animal per row, listed as EP; for Status: 1 = dead, 0 = alive
Method: as §1, with “touched.” for “touched. It was previously determined that when mice reach such conditions they will die within 6-8 hours.”
Mice were pouched and irradiadiated as described above. The mice were assigned to four different groups: (1) ten mice were untreated (control mice); (2) nineteen mice were treated with 0.1 mg/mouse of ceftriaxone (CEF) once every 24 hours […] (saline control mice); (3) twenty mice were treated with 0.1 mg/mouse ceftriaxone and 35 mg/ml ethyl pyruvate once every 24 hours for four days (EP mice); and (4) ten mice were treated as for group (3) and received an additional injection of 35 mg/ml of EP at 30 and 54 hour timepoints (EP 2x mice).

[3] = tested on: irradiated (490 rads) C3H/HeN mice with infected subcutaneous pouch; assay: Immunocompromised mouse model of contained infection: ceftriaxone treatment, spleen CFU at death and survival; assay type: in vivo; settings: Ceftriaxone 0.3 mg/mouse daily
Description: In order to test therapies intended at controlling systemic inflammatory response rather than the infection, it is desirable to control the infection to avoid problems that can derive from a high bacterial load. To this end we controlled the infection by using antibiotics. In this experiment, a subcutaneous pouch was induced in C3H/HeN animals. […] At Day 6 after induction of the pouches, mice were infected with 4.5×10^6 CFU/mouse. As animals became sick (as detected by a ruffled fur), each animal was assigned to one of two different groups, i.e. a group to be treated with 0.3 mg/mouse of ceftriaxone and a group to stay untreated. […] Once an animal was assigned to the treated group, it received a daily injection of antibiotic until the animal succumbed to death. […] At death, spleens were removed from the animals, homogenized in PBS, and the CFU determined.
The bacterial counts in the spleens of treated animals are about 3 logs of magnitude lower than in the untreated animals. The conditions employed should therefore be useful for testing therapies to prevent the progression from sepsis to septic shock in the absence of overwhelming bacterial infection.

For `CC(C)(N)c1ccc(-c2nc(Nc3ccc(CCN4CCOCC4)cc3)ncc2C#N)cc1` [Compound I], the Bacterial counts [1] was 1.3E+07 and 4.0E+06 and 3.0E+06 and 2.0E+06 and 1.0E+06 and 3.0E+05 (3×) and 2.0E+05 (2×) and 3.0E+04 and 1.7E+03 and 1.0E+03 and 1.0E+02 (5×) and <100 (7×), the Status [1] was 1 (27×) and 0 and the “Time of Death” value [1] was 40 (3×) and 46 (5×) and 48 (4×) and 64 and 88 and 94 and 112 (8×) and 160 and 96 (3×) and 168.

With `CCOC(=O)C(C)=O` [ethyl pyruvate] the “survival relative to nontreated or CEF-treated controls” value ([2]; 35 mg/ml ethyl pyruvate with 0.1 mg/mouse ceftriaxone, every 24 hours for four days (EP) or with extra doses at 30 and 54 h (EP 2x)) was “significant survival advantage”, the “Bacterial counts” value ([2]; Group 3 (EP mice): 0.1 mg/mouse ceftriaxone and 35 mg/ml ethyl pyruvate once every 24 hours for four days) was 1.0E+04 and 3.0E+04 and 1.2E+05 and 2.0E+05 (3×) and 3.0E+05 (2×) and 1.3E+04 and 2.5E+04 and 3.5E+04 and 6.5E+04 and 7.6E+04 and 8.0E+04 and 1.2E+04 and 2.0E+03 and 1.6E+03 (2×) and 1.6E+04 and 4.0E+04 and the Status ([2]; Group 3 (EP mice)) was 1 (19×) and 0. The Status.dead ([2]; Group 3 (EP mice)) was “DEAD (19×) and ALIVE”, the Time death ([2]; Group 3 (EP mice)) was 48 (6×) and 54 (8×) and 56 and 78 and 102 and 168 and 174 (2×) and the “Bacterial counts” value ([2]; Group 4 (EP 2x mice): as group 3 plus additional 35 mg/ml EP at 30 and 54 hour timepoints) was 2.0E+05 and 5.0E+04 (2×) and 3.0E+04 (2×) and 1.0E+04 and 1.7E+03 and 0.0E+00 and 1.0E+03 and 2.4E+03. The Status ([2]; Group 4 (EP 2x mice)) was 1 (7×) and 0 (3×), the Status.dead ([2]; Group 4 (EP 2x mice)) was “DEAD (7×) and ALIVE (3×)” and the Time death ([2]; Group 4 (EP 2x mice)) was 48 and 54 and 62 and 72 and 96 and 168 (2×) and 174 (3×).

`CO/N=C(\C(=O)N[C@@H]1C(=O)N2C(C(=O)O)=C(CSc3nc(=O)c(=O)[nH]n3C)CS[C@H]12)c1csc(N)n1` [Ceftriaxone, ceftriaxone] was tested, and the “CFU/spleen, Average” value ([3]; average of treated animals) was 7.01E+05 CFU/spleen and the CFU/spleen ([3]; spleens removed at death, single animals) was 2.60E+04 CFU/spleen and 3.00E+03 CFU/spleen and 8.00E+03 CFU/spleen and 8.00E+05 CFU/spleen (2×) and 1.80E+04 CFU/spleen and 6.00E+02 CFU/spleen and 1.20E+04 CFU/spleen and 2.00E+03 CFU/spleen and 4.00E+04 CFU/spleen and 6.00E+06 CFU/spleen.

With `COc1cc2c(Nc3ccc(Br)cc3F)ncnc2cc1OCC1CCN(C)CC1` [Compound II] the Bacterial counts [1] was 1.0E+09 and 1.0E+07 and 9.0E+06 and 3.0E+06 and 2.0E+06 (3×) and 5.0E+05 and 3.0E+05 (2×) and 5.0E+04 and 3.0E+04 and 1.6E+04 and 2.0E+03 and 1.0E+02 (2×) and <100 (9×), the Status [1] was 1 (23×) and 0 (4×) and the “Time of Death” value [1] was 40 (2×) and 46 (4×) and 48 (7×) and 64 (4×) and 160 (3×) and 112 (3×) and 168 (4×).
